Measurements published in PubChem BioAssay AID256 (DTP/NCI, 2004).
Several values for one entry are separate records, joined by “and”; a condition that tells them apart may be missing. Equal values may be shown once. Toxic doses and inconclusive results are not listed.

Test system: CD2F1 mice, L1210 leukemia ip, survival T/C
Test: NCI In Vivo Anticancer Drug Screen. Data for tumor model L1210 Leukemia (intraperitoneal) in CD2F1 (CDF1) mice
Conditions: higher = longer survival
Summary of the method: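 Compound-dosed mice with transplantable tumor versus matched vehicle controls; endpoint ratio T/C reported.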

[1] = endpoint: mean survival time, dose: 100.0 mg/kg/injection, schedule: Q01DX009 (ip), vehicle: saline with Tween-80
[2] = endpoint: mean survival time, dose: 100.0 mg/kg/injection, schedule: Q04DX003 (ip), vehicle: saline with Tween-80
[3] = endpoint: mean survival time, dose: 200.0 mg/kg/injection, schedule: Q01DX009 (ip), vehicle: saline with Tween-80
[4] = endpoint: mean survival time, dose: 200.0 mg/kg/injection, schedule: Q04DX003 (ip), vehicle: saline with Tween-80
[5] = endpoint: mean survival time, dose: 400.0 mg/kg/injection, schedule: Q01DX009 (ip), vehicle: saline with Tween-80
[6] = endpoint: mean survival time, dose: 400.0 mg/kg/injection, schedule: Q04DX003 (ip), vehicle: saline with Tween-80

In the case of `CC(C)CC(NC(=O)C(N)Cc1ccc(N(CCCl)CCCl)cc1)C(=O)O` (stereo not drawn), the T/C (endpoint: mean survival time, dose: 1.0 mg/kg/injection, schedule: Q04DX003 (ip), vehicle: saline with Tween-80) is reported as 106 % of control, the T/C (endpoint: mean survival time, dose: 2.0 mg/kg/injection, schedule: Q04DX003 (ip), vehicle: saline with Tween-80) is reported as 111 % of control and the T/C (endpoint: mean survival time, dose: 4.0 mg/kg/injection, schedule: Q04DX003 (ip), vehicle: saline with Tween-80) is reported as 113 % of control. The T/C (endpoint: mean survival time, dose: 8.0 mg/kg/injection, schedule: Q04DX003 (ip), vehicle: saline with Tween-80) was 118 % of control, the T/C (endpoint: mean survival time, dose: 32.0 mg/kg/injection, schedule: Q04DX003 (ip), vehicle: saline with Tween-80) was 112 % of control and the T/C (endpoint: mean survival time, dose: 64.0 mg/kg/injection, schedule: Q04DX003 (ip), vehicle: saline with Tween-80) was 121 % of control.

`NC1(C(=O)O)CCCC1` was tested, and the T/C (endpoint: mean survival time, dose: 50.0 mg/kg/injection, schedule: Q01DX009 (ip), vehicle: saline) was 98 % of control and 110 % of control, the T/C (endpoint: mean survival time, dose: 50.0 mg/kg/injection, schedule: Q03DX003 (ip), vehicle: saline) was 110 % of control and the T/C (endpoint: mean survival time, dose: 50.0 mg/kg/injection, schedule: Q04DX003 (ip), vehicle: saline) was 96 % of control. The T/C (endpoint: mean survival time, dose: 100.0 mg/kg/injection, schedule: Q03DX003 (ip), vehicle: saline) was 98 % of control and the T/C (endpoint: mean survival time, dose: 200.0 mg/kg/injection, schedule: Q01DX009 (ip), vehicle: saline) was 92 % of control and 110 % of control.

With `CC(C)(C)N1CC1CNC(=O)C(=O)NCC1CN1C(C)(C)C` (stereo not drawn) the T/C (endpoint: mean survival time, dose: 0.78 mg/kg/injection, schedule: Q01DX009 (ip), vehicle: saline with Tween-80) was 100 % of control and 102 % of control, the T/C (endpoint: mean survival time, dose: 1.56 mg/kg/injection, schedule: Q01DX009 (ip), vehicle: saline with Tween-80) was 103 % of control and 105 % of control and the T/C (endpoint: mean survival time, dose: 3.12 mg/kg/injection, schedule: Q01DX009 (ip), vehicle: saline with Tween-80) was 114 % of control and 108 % of control. For the same compound, the T/C (endpoint: mean survival time, dose: 12.5 mg/kg/injection, schedule: Q01DX009 (ip), vehicle: saline with Tween-80) was 171 % of control and 201 % of control, the T/C (endpoint: mean survival time, dose: 12.5 mg/kg/injection, schedule: Q01DX009 (oral), vehicle: saline with Tween-80) was 150 % of control and the T/C (endpoint: median survival time, dose: 3.13 mg/kg/injection, schedule: Q01DX009 (ip), vehicle: saline with Tween-80) was 117 % of control. For the same compound, the T/C (endpoint: median survival time, dose: 6.25 mg/kg/injection, schedule: Q01DX009 (ip), vehicle: saline with Tween-80) was 158 % of control and 171 % of control, the T/C (endpoint: median survival time, dose: 12.5 mg/kg/injection, schedule: Q01DX009 (ip), vehicle: saline with Tween-80) was 273 % of control and 275 % of control and the T/C (endpoint: median survival time, dose: 25.0 mg/kg/injection, schedule: Q01DX009 (ip), vehicle: saline with Tween-80) was 117 % of control and 98 % of control.

`CCCN1C(=O)C=CC1=O` was tested, and the T/C (endpoint: mean survival time, dose: 100.0 mg/kg/injection, schedule: Q01DX001 (ip), vehicle: saline with Tween-80) was 91 % of control.

`O=P(O)(O)OCC1OC(n2cnc3c(NCc4ccccc4)ncnc32)C(O)C1O` (stereo not drawn) was tested, and the T/C (endpoint: mean survival time, dose: 12.5 mg/kg/injection, schedule: Q01DX005 (ip), vehicle: other) was 104 % of control, the T/C (endpoint: mean survival time, dose: 25.0 mg/kg/injection, schedule: Q01DX005 (ip), vehicle: other) was 100 % of control and the T/C (endpoint: mean survival time, dose: 50.0 mg/kg/injection, schedule: Q01DX005 (ip), vehicle: other) was 104 % of control. For the same compound, the T/C (endpoint: mean survival time, dose: 100.0 mg/kg/injection, schedule: Q01DX005 (ip), vehicle: other) was 117 % of control.

`O=[N+]([O-])c1ccc(C(O)C(Br)[N+](=O)[O-])cc1` (stereo not drawn) was tested, and the T/C [1] was 93 % of control, the T/C [2] was 101 % of control and the T/C [3] was 94 % of control. The T/C [4] was 98 % of control, the T/C [5] was 87 % of control and the T/C [6] was 95 % of control.

For `Cc1ccc(C(=O)CC#N)c(C)c1`, the T/C [1] was 96 % of control, the T/C [2] was 98 % of control and the T/C [4] was 112 % of control. For the same compound, the T/C [5] was 90 % of control and the T/C [6] was 102 % of control.

For `C=C(C#N)C(=O)OCC(CC)CC.C=C(C#N)C(=O)OCC(CC)CC.CS(C)=O.CS(C)=O.Nc1c(N=Nc2ccc(-c3ccc(N=Nc4cc(S(=O)(=O)[O-])c5ccccc5c4N)cc3)cc2)cc(S(=O)(=O)[O-])c2ccccc12.[Pt+2]`, the T/C (endpoint: median survival time, dose: 3.12 mg/kg/injection, schedule: Q04DX003 (ip), vehicle: saline with Tween-80) was 95 % of control, the T/C (endpoint: median survival time, dose: 6.25 mg/kg/injection, schedule: Q04DX003 (ip), vehicle: saline with Tween-80) was 106 % of control and the T/C (endpoint: median survival time, dose: 12.5 mg/kg/injection, schedule: Q04DX003 (ip), vehicle: saline with Tween-80) was 108 % of control. The T/C (endpoint: median survival time, dose: 25.0 mg/kg/injection, schedule: Q04DX003 (ip), vehicle: saline with Tween-80) was 100 % of control, the T/C (endpoint: median survival time, dose: 50.0 mg/kg/injection, schedule: Q04DX003 (ip), vehicle: saline with Tween-80) was 97 % of control and the T/C (endpoint: median survival time, dose: 100.0 mg/kg/injection, schedule: Q04DX003 (ip), vehicle: saline with Tween-80) was 98 % of control. For the same compound, the T/C (endpoint: median survival time, dose: 200.0 mg/kg/injection, schedule: Q04DX003 (ip), vehicle: saline with Tween-80) was 90 % of control.

For `O=C(c1ccccc1)C(C(c1ccc([N+](=O)[O-])cc1)N1CCOCC1)N1CCOCC1` (stereo not drawn), the T/C [1] was 97 % of control, the T/C [2] was 101 % of control and the T/C [3] was 96 % of control. For the same compound, the T/C [4] was 101 % of control, the T/C [5] was 96 % of control and the T/C [6] was 108 % of control.

For `O=c1nc(-c2ccco2)sc(=O)[nH]1`, the T/C (endpoint: median survival time, dose: 25.0 mg/kg/injection, schedule: Q01DX009 (ip), vehicle: Klucel (hydroxypropylcellulose) (HPC)) was 100 % of control, the T/C (endpoint: median survival time, dose: 50.0 mg/kg/injection, schedule: Q01DX009 (ip), vehicle: Klucel (hydroxypropylcellulose) (HPC)) was 106 % of control and the T/C (endpoint: median survival time, dose: 100.0 mg/kg/injection, schedule: Q01DX009 (ip), vehicle: Klucel (hydroxypropylcellulose) (HPC)) was 96 % of control. The T/C (endpoint: median survival time, dose: 200.0 mg/kg/injection, schedule: Q01DX009 (ip), vehicle: Klucel (hydroxypropylcellulose) (HPC)) was 102 % of control.
